# In patent publication US20220204497A1, “NOVEL COMPOUND HAVING ANTICANCER ACTIVITY, AND METHOD FOR PRODUCING SAME” (MEDICINAL BIOCONVERGENCE RESEARCH CENTER, priority 2019, published 2022):
# Test system: A549 cells
# Assay: Cell viability by MTT method in A549 cells
# Type: cell-based
# Parameters: concentration or dose not given beside the values
# Settings: 72 hours treatment
row,SMILES,Cell Viability (% inhibition) (A549) [%]
1,"Cc1ccc(S(=O)(=O)N[C@@H](CC(C)C)C(=O)N2CCOCCOCCOCC2)cc1 [Compound 3, (S)-4-methyl-N-(4-methyl-1-oxo-1-(1,4,7-trioxa-10-azacyclododecan-10-yl)pentan-2-yl)benzenesulfonamide]",8.64
2,"Cc1ccc(S(=O)(=O)N[C@H](CC(C)C)C(=O)N2CCOCCOCCOCC2)cc1 [Compound 4, (R)-4-methyl-N-(4-methyl-1-oxo-1-(1,4,7-trioxa-10-azacyclododecan-10-yl)-Pentan-2-yl)benzenesulfonamide]",15.11
3,"Cc1ccc(S(=O)(=O)N[C@@H](Cc2c[nH]c3ccccc23)C(=O)NC23CC4CC(CC(C4)C2)C3)cc1 [Compound 204, (S)—N-((3R,5R,7R)-adamantan-1-yl)-3-(1H-indol-3-yl)-2-(4-methylphenylsulfonamido)propanamide]",78.9 ± 2.62
4,"COc1ccc(CCNC(=O)[C@H](Cc2c[nH]c3ccccc23)NS(=O)(=O)c2ccc(C)cc2)cc1 [Compound 205, (S)-3-(1H-indol-3-yl)-N-(4-methoxyphenethyl)-2-(4-methylphenylsulfonamido)propanamide]",65.64 ± 5.37
5,"Cc1ccc(S(=O)(=O)N[C@@H](Cc2c[nH]c3ccccc23)C(=O)NCCCc2ccccc2)cc1 [Compound 206, (S)-3-(1H-indol-3-yl)-2-(4-methylphenylsulfonamido)-N-(3-phenylpropyl)propanamide]",67.48 ± 2.35
6,"Cc1ccc(S(=O)(=O)N[C@@H](Cc2c[nH]c3ccccc23)C(=O)NCCc2ccc(F)cc2)cc1 [Compound 207, (S)—N-(4-fluorophenethyl)-3-(1H-indol-3-yl)-2-(4-methylphenylsulfonamido)propanamide]",64.02 ± 2.15
7,"Cc1ccc(S(=O)(=O)N[C@@H](Cc2c[nH]c3ccccc23)C(=O)Nc2nc(-c3ccc(C(F)(F)F)cc3)cs2)cc1 [Compound 208, (S)-3-(1H-indol-3-yl)-2-(4-methylphenylsulfonamido)-N-(4-(4-(trifluoromethyl)phenyl)thiazol-2-yl)propanamide]",82.89 ± 1.06
8,"O=C(NCCc1c[nH]c2ccccc12)[C@H](Cc1c[nH]c2ccccc12)NS(=O)(=O)c1ccc(Br)cc1 [Compound 209, (S)—N-(2-(1H-indol-3-yl)ethyl)-2-(4-bromophenylsulfonamido)-3-(1H-indol-3-yl)propanamide]",89.27 ± 0.77
9,"COc1ccc(-c2csc(NC(=O)[C@H](Cc3c[nH]c4ccccc34)NC(=O)c3ccc(C)cc3)n2)cc1 [Compound 210, (S)—N-(3-(1H-indol-3-yl)-1-((4-(4-methoxyphenyl)thiazol-2-yl)amino)-1-oxopropan-2-yl)-4-methylbenzamide]",40.83 ± 8.13
10,"COc1ccc(-c2csc(NC(=O)[C@H](Cc3c[nH]c4ccccc34)NS(=O)(=O)c3ccc(Cl)cc3)n2)cc1 [Compound 211, (S)-2-(4-Chlorophenylsulfonamido)-3-(1H-indol-3-yl)-N-(4-(4-methoxyphenyl)thiazol-2-yl)propanamide]",83.3 ± 1.04
11,"COc1ccc(-c2csc(NC(=O)[C@H](Cc3c[nH]c4ccccc34)NS(=O)(=O)c3ccc(C(F)(F)F)cc3)n2)cc1 [Compound 212, (S)-3-(1H-indol-3-yl)-N-(4-(4-methoxyphenyl)thiazol-2-yl)-2-(4-(trifluoromethyl)phenylsulfonamido)propanamide]",84.25 ± 0.99
12,"COc1ccc(-c2csc(NC(=O)[C@H](Cc3c[nH]c4ccccc34)NS(=O)(=O)c3ccc(F)cc3)n2)cc1 [Compound 213, (S)-2-(4-Fluorophenylsulfonamido)-3-(1H-indol-3-yl)-N-(4-(4-methoxyphenyl)thiazol-2-yl)propanamide]",83.29 ± 1.04
13,"C[C@]12C[C@@H]3C[C@](C)(C1)C[C@@](NC(=O)[C@H](Cc1c[nH]c4ccccc14)NS(=O)(=O)c1ccc(Br)cc1)(C3)C2 [Compound 214, (S)-2-(4-Bromophenylsulfonamido)-N-((1r,3R,5S,7S)-3,5-dimethyladamantan-1-yl)-3-(1H-indol-3-yl)propanamide]",86.93 ± 0.26
14,"Cc1ccc(C(=O)N[C@@H](Cc2c[nH]c3ccccc23)C(=O)OCc2ccccc2)cc1 [Compound 216, (S)-Benzyl 3-(1H-indol-3-yl)-2-(4-methylbenzamido)propanoate]",69.96 ± 2.46
15,"COC(=O)c1ccc(-c2csc(NC(=O)[C@H](Cc3c[nH]c4ccccc34)NS(=O)(=O)c3ccc(C)cc3)n2)cc1 [Compound 227, (S)-Methyl 4-(2-(3-(1H-indol-3-yl)-2-(4-methylphenylsulfonamido)propanamido)thiazol-4-yl)benzoate]",84.63 ± 0.51
16,"Cc1ccc(S(=O)(=O)N[C@@H](Cc2c[nH]c3ccccc23)C(=O)Nc2nc(-c3ccc(C(=O)O)cc3)cs2)cc1 [Compound 228, (S)-4-(2-(3-(1H-indol-3-yl)-2-(4-methylphenylsulfonamido)propanamido)thiazol-4-yl)benzoic acid]",48.75 ± 5.85
17,"COc1ccc(-c2csc(NC(=O)[C@H](CNc3nc4ccccc4o3)NS(=O)(=O)c3ccc(C)cc3)n2)cc1 [Compound 229, (S)-3-(Benzo[d]oxazol-2-ylamino)-N-(4-(4-methoxyphenyl)thiazol-2-yl)-2-(4-methylphenylsulfonamido)propanamide]",74.91 ± 2.05
18,"COc1ccc(-c2csc(NC(=O)[C@H](CNC(=O)c3ccccc3)NS(=O)(=O)c3ccc(C)cc3)n2)cc1 [Compound 230, (S)—N-(3-((4-(4-methoxyphenyl)thiazol-2-yl)amino)-2-(4-methylphenylsulfonamido)-3-oxopropyl)benzamide]",71.56 ± 1.67
19,"COc1ccc(-c2csc(NC(=O)[C@H](CNC(=O)c3cccnc3)NS(=O)(=O)c3ccc(C)cc3)n2)cc1 [Compound 231, (S)—N-(3-((4-(4-methoxyphenyl)thiazol-2-yl)amino)-2-(4-methylphenylsulfonamido)-3-oxopropyl)nicotinamide]",47.63 ± 5.89
20,"COc1ccc(-c2csc(NC(=O)[C@H](CNC(=O)c3cncnc3)NS(=O)(=O)c3ccc(C)cc3)n2)cc1 [Compound 232, (S)—N-(3-((4-(4-methoxyphenyl)thiazol-2-yl)amino)-2-(4-methylphenylsulfonamido)-3-oxopropyl)pyrimidine-5-carboxamide]",40.98 ± 2.65

# Biological target: T1, AIMP2-DX2 (Homo sapiens, UniProt Q13155)
# T1 sequence (Q13155 1-251 isoform Q13155-2): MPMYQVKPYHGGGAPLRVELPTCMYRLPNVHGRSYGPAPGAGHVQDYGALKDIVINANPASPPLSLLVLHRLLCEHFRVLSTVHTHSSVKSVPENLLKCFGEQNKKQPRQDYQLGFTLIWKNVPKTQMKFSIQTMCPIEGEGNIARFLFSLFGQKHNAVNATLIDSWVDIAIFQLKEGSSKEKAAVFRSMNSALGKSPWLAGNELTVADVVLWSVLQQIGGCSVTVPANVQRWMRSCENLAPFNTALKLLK
# Assay: DX2-nanoluciferase assay (DX2 expression change) in transfected A549 cells
# Settings: A549, 4 h, read-out: DX-Nanoluciferase activity (10 μM), 10 μM, 4 hours treatment, A549 cells transfected with nanoluciferase-DX2
# Procedure: After cloning DX2 into a plasmid expressing nanoluciferase, the plasmid was transfected into A549 cells. Transfected cells were seeded 1×10^4 per well in a 96-well plate and stabilized for 12 hours. […] Cell viability was measured by the MTT method after 72 hours of treatment with each concentration of the compound in A549 cells.
row,SMILES,inhibition at 10 µM [%]
1,"COc1cc(N2CCN(C(C)=O)CC2)ccc1NC(=O)[C@H](Cc1c[nH]c2ccccc12)NS(=O)(=O)c1ccc(C)cc1 [Compound 161, (S)—N-(4-(4-Acetylpiperazin-1-yl)-2-methoxyphenyl)-3-(1H-indol-3-yl)-2-(4-methylphenylsulfonamido)propanamide]",25.2 ± 9.86
2,"O=C(Nc1nc(-c2ccc([N+](=O)[O-])cc2)cs1)[C@H](Cc1c[nH]c2ccccc12)NS(=O)(=O)c1ccc(Br)cc1 [Compound 190, (S)-2-(4-Bromophenylsulfonamido)-3-(1H-indol-3-yl)-N-(4-(4-nitrophenyl)thiazol-2-yl)propanamide]",29.6 ± 14
3,"CCCCCCCCCC(=O)NNC(=O)[C@H](Cc1c[nH]c2ccccc12)NS(=O)(=O)c1ccc(Br)cc1 [Compound 195, (S)-4-Bromo-N-(1-(2-decanoylhydrazinyl)-3-(1H-indol-3-yl)-1-oxopropan-2-yl)benzenesulfonamide]",45.4 ± 5.61

# Same assay, conditions: A549, 4 h, read-out: DX-Nanoluciferase activity (40 μM), 40 μM, 4 hours treatment, A549 cells transfected with nanoluciferase-DX2; inhibitory effect on AIMP2-DX2 expression
row,SMILES,inhibition at 40 µM [%]
1,"Cc1ccc(S(=O)(=O)N[C@@H](CC(C)C)C(=O)N2CCOCCOCCOCC2)cc1 [Compound 3, (S)-4-methyl-N-(4-methyl-1-oxo-1-(1,4,7-trioxa-10-azacyclododecan-10-yl)pentan-2-yl)benzenesulfonamide]",55.8 ± 14.8
2,"Cc1ccc(S(=O)(=O)N[C@H](CC(C)C)C(=O)N2CCOCCOCCOCC2)cc1 [Compound 4, (R)-4-methyl-N-(4-methyl-1-oxo-1-(1,4,7-trioxa-10-azacyclododecan-10-yl)-Pentan-2-yl)benzenesulfonamide]",10.7 ± 12.8
3,"Cc1ccc(S(=O)(=O)N[C@@H](CC(=O)O)C(=O)Nc2ccc(N3CCOCC3)cc2)cc1 [Compound 145, (S)-3-(4-Methylphenylsulfonamido)-4-(4-morpholinophenylamino)-4-oxobutanoic acid]",-11.1 ± 19.2
4,"Cc1ccc(S(=O)(=O)N[C@@H](Cc2c[nH]c3ccccc23)C(=O)NCc2cccs2)cc1 [Compound 150, (S)-3-(1H-indol-3-yl)-2-(4-methylphenylsulfonamido)-N-(thiophen-2-ylmethyl)propanamide]",-17.7 ± 16.6
5,"CC(=O)Nc1cccc(S(=O)(=O)N[C@@H](CC(C)C)C(=O)N2CCOCC2)c1 [Compound 153, (S)—N-(3-(N-(4-methyl-1-morpholino-1-oxopentan-2-yl)sulfamoyl)phenyl)acetamide]",26.9 ± 6.7
6,"CC(C)C[C@H](NC(=O)Nc1ccccc1)C(=O)OCc1ccccc1 [Compound 154, (S)-Benzyl 4-methyl-2-(3-phenylureido)pentanoate]",40.5 ± 7.7
7,"Cc1ccc(S(=O)(=O)N[C@@H](Cc2c[nH]c3ccccc23)C(=O)NCc2ccco2)cc1 [Compound 178, (S)—N-(furan-2-ylmethyl)-3-(1H-indol-3-yl)-2-(4-methylphenylsulfonamido)propanamide]",1.52 ± 5.08
8,"O=C(NCc1ccco1)[C@H](Cc1c[nH]c2ccccc12)NS(=O)(=O)c1ccc(Br)cc1 [Compound 179, (S)-2-(4-Bromophenylsulfonamido)-N-(furan-2-ylmethyl)-3-(1H-indol-3-yl)propanamide]",-4.97 ± 1.37
9,"CCCCCCCCCC(=O)NNC(=O)[C@H](Cc1c[nH]c2ccccc12)NS(=O)(=O)c1ccc(Br)cc1 [Compound 195, (S)-4-Bromo-N-(1-(2-decanoylhydrazinyl)-3-(1H-indol-3-yl)-1-oxopropan-2-yl)benzenesulfonamide]",45.4 ± 5.61
